Where two headings read alike, the source gives them in different places.
Legend:
Vero cells = experiment: Cytotoxicity assay (MTT); settings: for IC50: read-out: Cytotoxicity Mean IC50, Vero cell lines, 48 h, MTT; for Selectivity Index: ratio cytotoxicity (Vero)/activity on Plasmodium
Protocol: Vero cells were cultured in MEM (Dutscher, Brumath, France) supplemented with 10% fetal bovine serum, 1× non-essential amino acids, 100 U/mL, 100 µg/mL penicillin/streptomycin, and 2 mM L-glutamine at 37 °C in a humidified 5% CO2 atmosphere. […] At this time, each well was microscope-examined for detection of possible precipitate formation prior to remove the supernatant by flicking the plate. 100 µL of a 0.5 mg/mL PBS-dissolved MTT tetrazolium (stock solution at 5 mg/mL) was then added to each well [48]. The plates were then incubated for 1 h at 37 °C and 5% CO2 prior to removing the supernatant and adding 100 µL of DMSO. Plates were gently shaken to dissolve formazan crystals resulting from the MTT tetrazolium reduction by living cells and read at 570 nm with BioTek µQuant Microplate Spectrophotometer.

[1] = system: P. falciparum chloroquine-resistant strain FcB1-Columbia; experiment: Antiplasmodial screen at 10 µM and chemosensitivity assay (SYBR Green I), FcB1-Columbia; assay type: cell-based, Plasmodium falciparum
[2] = system: P. falciparum F32-TEM (artemisinin-sensitive strain); experiment: Standard chemosensitivity assay (SYBR Green I), F32-TEM; assay type: cell-based, Plasmodium falciparum
Protocol: (§1) F32-ART5, an artemisinin-resistant strain and F32-TEM, an artemisinin-sensitive strain, were obtained from the parental clone F32-Tanzania, respectively under regular drug pressure cycles of increasing artemisinin concentrations for 5 years and without any artemisinin pressure. After these drug pressure cycles allowing selection of the F32-ART5 strain, regular drug pressures were performed to maintain its phenotype. […] Briefly, parasites were cultured in RPMI 1640 (Fisher Scientific, Waltham, Illkirch-Graffenstaden, France) supplemented with 5% type AB human serum (Etablissement français du Sang, Toulouse, France) and adjusted at a parasitemia of 1% and 2% hematocrit with type O human at 37 °C and 5% CO2. Parasite development was daily monitored by Giemsa staining.
(§2) Briefly, for the determination of IC50 values, the chemosensitivity assay was carried out in 96-well culture plates on D-sorbitol ring-stage synchronized parasites and antiplasmodial activities were evaluated using the SYBR Green I method. Drug testing was performed in triplicates in a dose range of 5 to 7 concentrations. […] Parasites were left to proliferate with the given compounds for 48 h at 37 °C and 5% CO2. After this period, pellets were washed 3 times in sterile PBS prior to putting the plates at −20 °C overnight to lyse all red blood cells. The following day, the plates were thawed at room temperature, 100 µL of each well was transferred into a black 96-well plate to which another 100 µL of 2× PBS-diluted SYBR Green I (Sigma-Aldrich) was added and left to incubate for 2 h at room temperature prior to reading the plates on BioTek FL× 800 Microplate Fluorescence Reader (λexcitation = 485 nm, λemission = 528 nm).
(§3) IC50 values were determined using GraphPad Prism by drawing the curve % inhibition vs. [Drug] and using a four-parameter dose–response curve with the following equation: Y=Bottom+ Top−Bottom/1+x^Hill Slope/IC50Hill Slope

Adult S. mansoni = experiment: In vitro antischistosomal activity on adult worms; assay type: cell-based, Schistosoma mansoni; settings: for S. mansoni Mean Survival Time / Time for the death of 100% worms: adult S. mansoni, observation up to 8 h; for S. mansoni Mean Survival Time: single dose 100 µg/mL; for Time for the death of 100% worms / Mean (±SD) survival time – Adult S. mansoni: 100 µg/mL; for Mean (±SD) survival time – Adult S. mansoni: observation up to 8 h (Table S1)
Source text: The NMRI strain of Schistosoma mansoni was used for the experimentations. The parasite was maintained on an albino variety of Biomphalaria glabrata from Brazil (intermediate host) and in Golden Hamsters, Mesocricetus auratus (Janvier Labs, Le Genest-Saint-Isle, France). Detailed methods, for mollusk and hamster infections and for parasite recovery, were previously described.
Adult worms were recovered between 42 and 47 days after infection by hepatic perfusion technique. Twenty to fifty adult worms were disposed in 12-well Falcon® plate containing 2 mL of RPMI 1640 (supplemented with L-glutamine and Hepes 25 mM) and stored in an incubator chamber (37 °C; 5% CO2). Drug preparation started with dissolution of the drug in DMSO to give a 100 mg/mL stock solution. The dilution was complemented with Tween 80 and RPMI in order to obtain the following final ratio dilution: RPMI 1640/Tween 80/DMSO, 1000/0.95/3.8, v/v/v. The drug solution was added to Falcon plates that contained adult worms. The S. mansoni cultures were then incubated with each drug at a final concentration of 100 µg/mL. Positive control was carried out with a solution of praziquantel (Merck KGaA, Darmstadt, Germany) at a concentration of 100 µg/mL. Negative control was carried out with the same RPMI 1640/Tween 80/DMSO solution, but without any drug. Each test was performed in duplicate. Every hour, moving worms were counted in order to define the percentage of survivors. Parasites showing no body contractions during a 30 s observation were considered as dead. Observations were extended to 8 h. Mean survival times (± standard deviation) were calculated for each drug using Kaplan–Meier survival analyses.

[3] = system: P. falciparum F32-ART5 (artemisinin-resistant strain); experiment: Standard chemosensitivity assay (SYBR Green I), F32-ART5; assay type: cell-based, Plasmodium falciparum
Protocol: as §1, §2, §3

[4] = Homolysis of the NO–C bond measured by EPR
Protocol: Homolysis rate constants kd’ were measured by EPR and estimated using Equation (1) as reported many times in the literature. Further, Ea and kd were estimated using Equation (2). (1) ln([nitroxide]∞−[nitroxide]t/[nitroxide]∞)=−kd·t (2) Ea=−RT ln([…] kd′ )

[5] = FcB1-Columbia strain, read-out: IC50 on P. falciparum
[6] = Plasmodium falciparum, FCB1, read-out: IC50 on P. falciparum, FcB1-Columbia strain
[7] = read-out: P. falciparum Strains Mean IC50, F32-ART5; 48 h; ^1 n = 1, ^2 n = 2
[8] = read-out: P. falciparum Strains Mean IC50, F32-TEM, 48 h, ^1 n = 1, ^2 n = 2

CCOP(=O)(OCC)C(N(OC(CN)c1ccccc1)C(C)(C)C)C(C)(C)C (stereo not shown) [(RR/SS)-1A]
IC50 (Vero cells; listed as (RR/SS)-1A): > 100 µM
IC50 [1, 5]: > 10 µM

CCOP(=O)(OCC)C(N(OC(C)c1cc(-c2ccccn2)nc(-c2ccccn2)c1)C(C)(C)CO)C(C)(C)C (stereo not shown) [2F]
IC50 ([2]; Plasmodium falciparum, F32, read-out: IC50 on the F32 strains, F32-TEM and F32-ART5 taken together): 0.4 to 0.6 µM
Selectivity Index (Vero cells): 1
S. mansoni Mean Survival Time (Adult S. mansoni): 2.1 to 2.5 h
IC50 [1, 6]: 0.2 to 0.3 µM

CCOP(=O)(OCC)C(N(OC(C)c1cc(-c2ccccn2)nc(-c2ccccn2)c1)C(C)(C)C=O)C(C)(C)C (stereo not shown) [(RR/SS)-7F, Diethyl(1-((1-([2,2′:6′,2′′-terpyridin]-4′-yl)ethoxy)(2-methyl-1-oxopropan-2-yl)amino)-2,2-dimethylpropyl)phosphonate]
IC50 [3, 7]: 0.85 µM
IC50 [2, 8]: 0.94 µM
Selectivity Index (Vero cells): 1
IC50 (Vero cells): 1.2 ± 1.3 µM
Time for the death of 100% worms (Adult S. mansoni): 3 h
S. mansoni Mean Survival Time (Adult S. mansoni): 2.5 ± 0.1 h

CCOP(=O)(OCC)C(N(OC(CO)c1ccccn1)C(C)(C)C)C(C)(C)C (stereo not shown) [(RS/SR)-1i]
Mean (±SD) survival time – Adult S. mansoni (Adult S. mansoni): > 8 h
Time for the death of 100% worms (Adult S. mansoni): > 8 h
IC50 [1, 5]: > 10 µM

CCOP(=O)(OCC)C(N(OC(C)c1cc(-c2ccccn2)nc(-c2ccccn2)c1)C(C)(C)C(=O)O)C(C)(C)C (stereo not shown) [(RR/SS)-4F, 2-((1-([2,2′:6′,2′′-Terpyridin]-4′-yl)ethoxy)(1-(diethoxyphosphoryl)-2,2-dimethylpropyl)amino)-2-methylpropanoic acid]
IC50 [3, 7]: 4.6 µM
IC50 [2, 8]: 4.6 µM
Selectivity Index (Vero cells): 2
IC50 (Vero cells): 8.1 µM
Mean (±SD) survival time – Adult S. mansoni (Adult S. mansoni): > 8 h
Time for the death of 100% worms (Adult S. mansoni): > 8 h
S. mansoni Mean Survival Time (Adult S. mansoni): > 8 h

CCOP(=O)(OCC)C(N(OC(C)c1ccc(C(=O)O)cc1)C(C)(C)C)C(C)(C)C (stereo not shown) [(RR/SS)-1y]
Mean (±SD) survival time – Adult S. mansoni (Adult S. mansoni): > 8 h
Time for the death of 100% worms (Adult S. mansoni): > 8 h
IC50 [1, 5]: > 10 µM

CCOP(=O)(OCC)C(N(OC(CO)c1ccccc1)C(C)(C)C)C(C)(C)C (stereo not shown) [(RS/SR)-1C]
Mean (±SD) survival time – Adult S. mansoni (Adult S. mansoni): 1.4 ± 0.2 h
Time for the death of 100% worms (Adult S. mansoni): 2 h
IC50 [1, 5]: > 10 µM

CCOP(=O)(OCC)C(N(OC(CN)c1ccccc1)C(C)(C)C)C(C)(C)C (stereo not shown) [(RS/SR)-1A]
IC50 (Vero cells; listed as (RS/SR)-1A): 21 µM
Mean (±SD) survival time – Adult S. mansoni (Adult S. mansoni): 1.0 ± 0.05 h
Time for the death of 100% worms (Adult S. mansoni): 1 h
S. mansoni Mean Survival Time (Adult S. mansoni): 1.0 ± 0.05 h

CCOP(=O)(OCC)C(N(OC(C)c1ccnc2c1ccc1cccnc12)C(C)(C)C)C(C)(C)C (stereo not shown) [1K]
IC50 ([3]; 48 h; ^1 n = 1, ^2 n = 2; read-out: P. falciparum Strains Mean IC50, F32-ART5): 1.6 µM
IC50 (Vero cells): 1.1 ± 0.7 µM
Mean (±SD) survival time – Adult S. mansoni (Adult S. mansoni): 1.1 ± 0.04 h
Time for the death of 100% worms (Adult S. mansoni): 2 h
S. mansoni Mean Survival Time (Adult S. mansoni): 1.1 ± 0.0 h
IC50 [1, 5]: 1.3 ± 0.3 µM

CCOP(=O)(OCC)C(N(OC(C)c1cc(-c2ccccc2)cc(-c2ccccc2)c1)C(C)(C)CO)C(C)(C)C (stereo not shown) [(RR/SS)-2G, Diethyl(1-((1-([1,1′:3′,1′′-terphenyl]-5′-yl)ethoxy)(1-hydroxy-2-methylpropan-2-yl)amino)-2,2-dimethylpropyl)phosphonate]
activation energy Ea ([4]; MeOH/water 2:1 pH = 7.0): 28.94 kcal/mol
re-estimated homolysis rate constant kd at 120 °C ([4]; MeOH/water 2:1 pH = 7.0): 19.5 10^−3 s^−1
homolysis rate constant kd′ ([4]; MeOH/water 2:1 pH = 7.0, 81 °C): 3.3 10^−4s^−1
half-life ([4]; buffer, pH 7, half-lifetime t1/2 at 37 °C, MeOH/water 2:1 pH = 7.0): 295 h
half-life ([4]; half-lifetime t1/2 at 37 °C, t-BuPh): 180 h
activation energy Ea ([4]; t-BuPh): 28.87 kcal/mol
re-estimated homolysis rate constant kd at 120 °C ([4]; t-BuPh): 21.1 10^−3 s^−1
homolysis rate constant kd′ ([4]; t-BuPh, 81 °C): 3.8 10^−4s^−1
Time for the death of 100% worms (Adult S. mansoni): 7 h
IC50 [1, 6]: > 10 µM

CCOP(=O)(OCC)C(N(OC(CN)c1cc[n+]([O-])cc1)C(C)(C)C)C(C)(C)C (stereo not shown) [(RS/SR)-1e]
Mean (±SD) survival time – Adult S. mansoni (Adult S. mansoni): > 8 h
Time for the death of 100% worms (Adult S. mansoni): > 8 h
IC50 [1, 5]: > 10 µM

CCOP(=O)(OCC)C(N(OC(C)n1ccnc1)C(C)(C)C)C(C)(C)C (stereo not shown) [(RR/SS)-1o]
Mean (±SD) survival time – Adult S. mansoni (Adult S. mansoni): 2.3 ± 0.2 h
Time for the death of 100% worms (Adult S. mansoni): 3 h
IC50 [1, 5]: 25 µM

CCOP(=O)(OCC)C(N(OC(C)c1c[nH]cn1)C(C)(C)C)C(C)(C)C (stereo not shown) [(RR/SS)-1p]
IC50 (Vero cells): > 100 µM
Mean (±SD) survival time – Adult S. mansoni (Adult S. mansoni): 1.0 ± 0.05 h
Time for the death of 100% worms (Adult S. mansoni): 1 h
S. mansoni Mean Survival Time (Adult S. mansoni): 1.0 ± 0.05 h

Reference: PMC7503767, “Alkoxyamines Designed as Potential Drugs against Plasmodium and Schistosoma Parasites” (Molecules, 2020)
